Laboratory results published in PMC8251916 (Chemistry (Weinheim an Der Bergstrasse, Germany), 2021).

Legend:
[1] = system: F21T-K+ (human telomeric G-quadruplex, mixed parallel/hybrid); assay: FRET melting assay, human telomeric G4 in potassium buffer; assay type: binding; conditions: 200 nM DNA, PIPER and 3 not reliable (spectral overlap)
Description: (§1) With the library in hand, we began our investigation into G4 stabilization by conducting a Förster resonance energy transfer (FRET) melting assay to assess DNA stabilization using the procedure outlined by De Cian et. al. ^[13] […] The sequences examined (at 200 nM) were the human telomeric G4 in potassium buffer (F21T‐K^+, mixed parallel/hybrid G4) ^[14] and sodium buffer (F21T‐Na^+, antiparallel G4), ^[15] the c‐Myc promoter G‐quadruplex (FmycT‐K^+, parallel G4), ^[16] a polymorphic G4 found in T. brucei (FEBR1T‐K^+, a mixed G4 topology), ^[6b] and a hairpin duplex DNA sequence (F10T‐K^+). Together, these sequences represent targets for therapeutic intervention to treat parasitic infections, ^[6b] or cancer. ^[1b] The topology of each sequence was confirmed independently via circular dichroism (CD, Figure S1). […]
(§2) FRET melting assays were performed to assess ligand affinity for duplex and G-quadruplex
(§3) DNA. Briefly, oligonucleotides of interest were obtained labelled at the 5’ and 3’ ends with FAM (a fluorescence donor) and TAMRA (a fluorescence quencher), respectively. In the folded state, proximity of the donor and quencher result in no observed fluorescence from FAM, since energy is transferred non-radiatively to TAMRA by FRET. As the temperature is raised and the secondary structure denatures, the fluorophores move further apart and the fluorescence signal increases. From the resulting curve, the characteristic melting temperature (Tmax, also referred to as Tm) is defined as the temperature which corresponds to the maxima of the first derivative of the normalised fluorescence signal. The change in melting temperature (ΔTm) induced by the presence of a small molecule ligand provides an indication of the ligand’s ability to stabilise the DNA structure. FRET experiments were performed according to the […]
(§4) procedure reported by De Cian and co-workers[S3] on a Stratagene MX3005P. The method consisted of holding at 25 °C for 5 min, before heating at 1 °C/min to 96 °C in 1 °C increments, […]

[2] = system: F21T-Na+ (human telomeric G-quadruplex, antiparallel); assay: FRET melting assay, human telomeric G4 in sodium buffer; assay type: binding; conditions: 200 nM DNA, PIPER and 3 not reliable (spectral overlap)
Description: as §1, §2, §3, §4

[3] = system: FmycT-K+ (c-Myc promoter G-quadruplex, parallel); assay: FRET melting assay, c-Myc promoter G4; assay type: binding; conditions: 200 nM DNA, PIPER and 3 not reliable (spectral overlap)
Description: as §1, §2, §3, §4

[4] = system: Febr1T-K+ (T. brucei G-quadruplex); assay: FRET melting assay, T. brucei G4; assay type: binding; conditions: 200 nM DNA, PIPER and 3 not reliable (spectral overlap)
Description: as §1, §2, §3, §4

[5] = system: F10T-K+ (hairpin duplex DNA); assay: FRET melting assay, hairpin duplex DNA; assay type: binding; conditions: 200 nM DNA, PIPER and 3 not reliable (spectral overlap)
Description: as §1, §2, §3, §4

MRC5 non-tumoral cells = assay: Cytotoxicity, alamarBlue assay, MRC5; assay type: cell-based, human; conditions: Homo sapiens, MRC5, 72 h, 72 h incubation, alamarBlue fluorescence; read-out: absolute EC50 MRC5
Description: (§5) Doxorubicin, suramin and miltefosine were used as control compounds.[ ^6b , ^9 ] After incubation with varied concentrations of the compounds for 72 h, cell viability was measured using either an alamarBlue™ assay (for MRC5, HeLa and T. brucei) or MTT assay (for L. major). Absolute EC50 values and selectivity indexes were then calculated from dose‐response curves (Table 2 and S14). […]
(§6) Cell culture reagents were purchased from Thermo Fisher Scientific (Waltham, MA, USA) and used as-is. The Dulbecco’s Minimal Essential Medium (DMEM) formulation contained either high glucose (4.5 g/L, catalogue number: 10569) or low glucose (1 g/L, catalogue number:
(§7) 10567). RPMI-1640 was provided without sodium pyruvate and with L-glutamine (catalogue number: 11875). Phosphate Buffered Saline (PBS) contained NaCl (9 g/L), KH2PO4 (144 mg/L) and Na2HPO4-7.H2O (795 mg/L, catalogue number: 10010049). TrypLE Express™ was provided with EDTA (458 mg/L) and without Phenol Red (catalogue number: 12604021).
(§8) MRC-5 cells (human lung fibroblasts) were grown in monolayer (37 °C, 5 % CO2 and 100 % humidity) in DMEM medium (1 g/L glucose), supplemented with 10% heat-inactivated Fetal Bovine Serum (hiFBS), 2 mM L-glutamine, 100 U / mL penicillin and […]
(§9) streptomycin. […]
(§10) Cells were cultured according to ATCC recommendations and were used for the experiments while in the exponential growth phase. […]
(§11) Cytotoxicity was measured through the alamarBlue® assay (Thermo Fisher Scientific).[S6,S13] Briefly, 5×10^3 MRC-5 or HeLa cells were seeded in 96-wells plates (100 µL / well) in the presence of increasing concentrations of compound. After 72 hrs of incubation at 37 °C, 20 µL of alamarBlue® solution (110 ng / ml) was added to each well and cells were reincubated for 4 hrs at 37 °C. Then, 50 µL of 3 % SDS were added to each well. The plate was incubated at 37 °C for an extra hour and then analysed by fluorescence with an Infinite F200 plate reader (TECAN Austria, GmbH). The excitation wavelength was fixed at 550 nm and the emission wavelength at 590 nm. The results are expressed as the concentration of compound that reduces

[6] = system: HeLa cervical carcinoma cells; assay: Cytotoxicity, alamarBlue assay, HeLa; assay type: cell-based, human; conditions: Homo sapiens, HeLa; 72 h incubation, alamarBlue fluorescence; read-out: absolute EC50 HeLa
Description: as §5, §6, §7
MRC-5 cells (human lung fibroblasts) were grown in monolayer (37 °C, 5 % CO2 and 100 % humidity) in DMEM medium (1 g/L glucose), supplemented with 10% heat-inactivated Fetal Bovine Serum (hiFBS), 2 mM L-glutamine, 100 U / mL penicillin and […] streptomycin. HeLa (Human cervical carcinoma cell line) cells were maintained at 37 °C and 5 % CO2 in high glucose DMEM (4.5 g / L) supplemented with 10% hiFBS, 100 U / ml penicillin, […] streptomycin, 2 mM L-glutamine and non-essential aminoacids (1X).
as §10, §11

T. brucei = assay: Trypanocidal activity, alamarBlue assay; assay type: cell-based; conditions: Trypanosoma brucei; 72 h incubation, alamarBlue fluorescence; read-out: absolute EC50 T. brucei
Description: as §5, §6, §7, §8, §9, §10
hiFBS. Parasites were split every other day and maintained in their experimental growth phase (below 2 million parasites per mL).
as §11

L. major = assay: Leishmaniacidal activity, MTT assay; assay type: cell-based; conditions: Leishmania major; 72 h incubation, MTT absorbance; read-out: absolute EC50 L. major
Description: Doxorubicin, suramin and miltefosine were used as control compounds.[ ^6b , ^9 ] After incubation with varied concentrations of the compounds for 72 h, cell viability was measured using either an alamarBlue™ assay (for MRC5, HeLa and T. brucei) or MTT assay (for L. major). Absolute EC50 values and selectivity indexes were then calculated from dose‐response curves (Table 2 and S14).
Invitrogen). L. major promastigotes (MHOM/IL/80/Friedlin) were cultured at 28 °C, 5 % CO2 in modified RPMI-1640 medium (Thermo Fisher Scientific, Waltham, MA, USA) with 10% hiFBS. Parasites were split every other day and maintained in their experimental growth phase (below 2 million parasites per mL). […]
The results are expressed as the concentration of compound that reduces cell growth by 50 % versus untreated control cells (EC50) using GraphPad Prism 7 (GraphPad Software) to fit the data to a sigmoidal curve. Data are presented as the average of three independent measurements all conducted in triplicate conditions. […]
The leishmaniacidal activity of the compounds on promastigotes L. major (MHOM/IL/80/Friedlin) was carried out as previously described.[S14] Briefly, 4 × 10^6 / mL promastigotes were incubated for 72 h at 28 °C in 96-well plates (50 µL/well) in the presence of increasing concentration of compounds. Cell proliferation was determined using an MTT-based assay (Sigma-Aldrich). Thus, after the 72 h incubation, 10 µL of MTT (5 mg/ml) were added to each well and parasites were reincubated for 4 hrs at 28 °C. Then, 50 µL of 20 % SDS were added to each well. The plate was then incubated at 37°C for 4-16 hrs and analysed using an Infinite F200 plate reader (TECAN Austria, GmbH). The absorbance was measured […]
at a wavelength of 540 nm and the EC50 was calculated as described above. Data are presented as the average of three independent measurements, all conducted in triplicate conditions. […]

[7] = 5 μM ligand, 10 mM KCl, 90 mM LiCl, 10 mM Li cacodylate

| Structure (SMILES) | ΔTm F21T-K+ ([1]; 10 µM ligand) [°C] | ΔTm F21T-Na+ ([2]; 10 µM ligand) [°C] | ΔTm FmycT-K+ ([3]; 10 µM ligand) [°C] | ΔTm Febr1T-K+ ([4]; 10 µM ligand) [°C] | ΔTm F10T-K+ ([5]; 10 µM ligand) [°C] | EC50 (MRC5 non-tumoral cells) [µM] | EC50 [6] [µM] | EC50 (T. brucei) [µM] | EC50 (L. major) [µM] | ΔTm F21T-K+ ([1]; 1 µM ligand) [°C] | ΔTm F21T-Na+ ([2]; 1 µM ligand) [°C] | ΔTm FmycT-K+ ([3]; 1 µM ligand) [°C] | ΔTm Febr1T-K+ ([4]; 1 µM ligand) [°C] | ΔTm F10T-K+ ([5]; 1 µM ligand) [°C] | ΔTm F21T-K+ [1, 7] [°C] | ΔTm F21T-Na+ ([2]; 5 μM ligand, 100 mM NaCl, 10 mM Li cacodylate) [°C] | ΔTm FmycT-K+ ([3]; 5 μM ligand, 1 mM KCl, 99 mM LiCl, 10 mM Li cacodylate) [°C] | ΔTm Febr1T-K+ [4, 7] [°C] | ΔTm F10T-K+ [5, 7] [°C] |
| --- | --- | --- | --- | --- | --- | --- | --- | --- | --- | --- | --- | --- | --- | --- | --- | --- | --- | --- | --- |
| CN1CCN(CCCN2C(=O)c3ccc(Oc4ccc5c(c4)C(=O)N(CCCN4CCN(C)CC4)C5=O)cc3C2=O)CC1 [Compound 5] | -3 ± 1 | -3 ± 1 | -3 ± 1 | 1 ± 1 | 0 ± 1 | > 100 | > 100 | 67 ± 18 | > 100 | – | – | – | – | – | – | – | – | – | – |
| CN1CCN(CCCN2C(=O)c3ccc(C(c4ccc5c(c4)C(=O)N(CCCN4CCN(C)CC4)C5=O)(C(F)(F)F)C(F)(F)F)cc3C2=O)CC1 [Compound 6] | -2 ± 1 | -8 ± 1 | -4 ± 1 | 2 ± 1 | 0 ± 1 | > 100 | > 100 | 36 ± 2 | > 100 | – | – | – | – | – | – | – | – | – | – |
| CN1CCN(CCCN2C(=O)c3ccc(C(=O)c4ccc5c(c4)C(=O)N(CCCN4CCN(C)CC4)C5=O)cc3C2=O)CC1 [Compound 7] | -3 ± 1 | -3 ± 2 | -3 ± 1 | 1 ± 1 | 0 ± 1 | > 100 | > 100 | 70 ± 13 | > 100 | – | – | – | – | – | – | – | – | – | – |
| CN1CCN(CCCn2c(=O)c3cc4c(=O)n(CCCN5CCN(C)CC5)c(=O)c4cc3c2=O)CC1 [Compound 8] | 1 ± 1 | 1 ± 1 | -2 ± 1 | -2 ± 1 | 0 ± 1 | > 100 | > 100 | 52 ± 7 | > 100 | – | – | – | – | – | – | – | – | – | – |
| CN1CCN(CCCNC(=O)c2ccc(C(=O)c3ccc(C(=O)NCCCN4CCN(C)CC4)c(C(=O)NCCCN4CCN(C)CC4)c3)cc2C(=O)NCCCN2CCN(C)CC2)CC1 [Compound 10] | -2 ± 1 | -2 ± 1 | -1 ± 1 | 1 ± 2 | 0 ± 1 | > 100 | > 100 | 55 ± 3 | > 100 | – | – | – | – | – | – | – | – | – | – |
| COc1cccc2c1C(=O)c1c(O)c3c(c(O)c1C2=O)C[C@@](O)(C(=O)CO)C[C@@H]3O[C@H]1C[C@H](N)[C@H](O)[C@H](C)O1 [Doxorubicin, reference compound] | – | – | – | – | – | – | 0.4 ± 0.05 | – | – | 10 ± 1 | 0 ± 1 | 8 ± 1 | 5 ± 1 | 2 ± 1 | – | – | – | – | – |
| CCCCCCCCCCCCCCCCOP(=O)([O-])OCC[N+](C)(C)C [Miltefosine, reference compound] | – | – | – | – | – | – | – | – | 5.8 ± 0.01 | – | – | – | – | – | – | – | – | – | – |
| O=C1c2ccc3c4ccc5c6c(ccc(c7ccc(c2c37)C(=O)N1CCN1CCCCC1)c64)C(=O)N(CCN1CCCCC1)C5=O [PIPER, reference compound] | > 40 | 22 ± 1 | 26 ± 1 | 38 ± 7 | – | – | – | – | – | 33 ± 1 | – | 23 ± 1 | 21 ± 4 | 0 ± 1 | 37±2 | 17±2 | 21±2 | 33±1 | 1±1 |
| Cc1ccc(C(=O)Nc2ccc(S(=O)(=O)O)c3cc(S(=O)(=O)O)cc(S(=O)(=O)O)c23)cc1NC(=O)c1cccc(NC(=O)Nc2cccc(C(=O)Nc3cc(C(=O)Nc4ccc(S(=O)(=O)O)c5cc(S(=O)(=O)O)cc(S(=O)(=O)O)c45)ccc3C)c2)c1 [Suramin, reference compound] | – | – | – | – | – | – | – | 0.044 ± 0.006 | – | – | – | – | – | – | – | – | – | – | – |
| C[n+]1ccc(-c2c3nc(c(-c4cc[n+](C)cc4)c4ccc([nH]4)c(-c4cc[n+](C)cc4)c4ccc([nH]4)c(-c4cc[n+](C)cc4)c4nc2C=C4)C=C3)cc1 [TMPyP4, reference compound] | – | – | – | – | – | – | – | – | – | 33 ± 1 | 31 ± 2 | 34 ± 1 | 32 ± 2 | 9 ± 1 | – | – | – | – | – |
